From patent publication US20250049035A1, “MICROBIOCIDAL BICYCLE HETEROCYCLIC DERIVATIVES” (SYNGENTA CROP PROTECTION AG, priority 2021, published 2025) come the findings set out here.

In test [1] the test system is Monographella nivalis (Microdochium nivale). In words: Monographella nivalis (Microdochium nivale) / liquid culture (foot rot cereals). Type of test: cell-based. To be noted: liquid culture (potato dextrose broth), growth inhibition photometrically 4-5 days after application, compared to untreated control. A digest of the protocol:
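Cryostored conidia suspended in potato dextrose broth and added to compound dispensed from DMSO solution. Growth at 24 °C; inhibition read photometrically 4–5 days after application.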

Test [2] concerns Mycosphaerella arachidis (Cercospora arachidicola). Nature of the test: Mycosphaerella arachidis (Cercospora arachidicola) / liquid culture (early leaf spot). The format is cell-based. To be noted: liquid culture (potato dextrose broth), growth inhibition photometrically 4-5 days after application, compared to untreated control. A digest of the protocol:
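Cryostored conidia mixed into potato dextrose broth and added to compound dispensed in DMSO. Plates held at 24 °C; growth inhibition assessed photometrically 4–5 days after application.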

Test [3] has as its system Mycosphaerella graminicola (Septoria tritici). Nature of the test: Mycosphaerella graminicola (Septoria tritici) / liquid culture (Septoria blotch). The format is cell-based. The following applies: Zymoseptoria tritici, liquid culture (potato dextrose broth), growth inhibition photometrically 4-5 days after application, compared to untreated control. The essentials:
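Cryostored conidia in potato dextrose broth added to compound in DMSO, incubated at 24 °C. Growth inhibition read photometrically 4–5 days after application.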

The subject of test [4] is Thanatephorus cucumeris (Rhizoctonia solani). Nature of the test: Thanatephorus cucumeris (Rhizoctonia solani) / liquid culture (foot rot, damping-off). The format is cell-based. To be noted: 20 ppm; liquid culture (potato dextrose broth), growth inhibition photometrically 3-4 days after application; compared to untreated control. On the procedure: Example B13: Thanatephorus cucumeris (Rhizoctonia solani)/Liquid Culture (Foot Rot, Damping-Off) Mycelia fragments of a newly grown liquid culture of the fungus are directly mixed into a nutrient broth (potato dextrose broth). After placing a DMSO solution of the test compounds into a microtiter plate (96-well format), the nutrient broth containing the fungal material is added. The test plates are incubated at 24° C. and the inhibition of growth is determined photometrically 3-4 days after application.

A further test concerns Fusarium culmorum. Nature of the test: microbe, parasite or virus in culture. The format is cell-based. To be noted: read-out: control of Fusarium culmorum.
Another test relates to Sclerotinia sclerotiorum. In words: Sclerotinia sclerotiorum / liquid culture (cottony rot). Type of test: cell-based. To be noted: liquid culture (potato dextrose broth), growth inhibition photometrically 3-4 days after application, compared to untreated control. On the procedure:
Example B14: Sclerotinia sclerotiorum/Liquid Culture (Cottony Rot) Mycelia fragments of a newly grown liquid culture of the fungus are directly mixed into a nutrient broth (potato dextrose broth). After placing a DMSO solution of test compound into a microtiter plate (96-well format) the nutrient broth containing the fungal material is added. The test plates are incubated at 24° C. and the inhibition of growth is determined photometrically 3-4 days after application.

For test [5], the system named is Blumeria graminis f. sp. tritici (Erysiphe graminis f. sp. tritici). Nature of the test: Blumeria graminis f. sp. tritici / wheat / leaf disc preventative (powdery mildew). The following applies: foliar, wheat leaf segments cv. Kanzler, inoculated 1 day after application, assessed 6-8 days after application, compared to untreated control. The format is in vivo. The method, then:
Example B4: Blumeria graminis f. sp. tritici (Erysiphe graminis f. sp. tritici)/Wheat/Leaf Disc Preventative (Powdery Mildew on Wheat) Wheat leaf segments cv. Kanzler are placed on agar in a multiwell plate (24-well format) and sprayed with the formulated test compound diluted in water. The leaf disks are inoculated by shaking powdery mildew infected plants above the test plates 1 day after application. The inoculated leaf disks are incubated at 20° C. and 60% relative humidity under a light regime of 24 h darkness followed by 12 h light/12 h darkness in a climate chamber and the activity of a compound is assessed as percent disease control compared to untreated when an appropriate level of disease damage appears on untreated check leaf segments (6-8 days after application).

The subject of test [6] is Botryotinia fuckeliana (Botrytis cinerea). In words: Botryotinia fuckeliana (Botrytis cinerea) / liquid culture (gray mould). The following applies: liquid culture (Vogels broth), growth inhibition photometrically 3-4 days after application, compared to untreated control. Type of test: cell-based. A digest of the protocol:
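Conidia from cryogenic storage, suspended in Vogels nutrient broth, added to compound applied as a DMSO solution. Incubation at 24 °C; growth inhibition read photometrically 3–4 days after application.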

Another test relates to Pyrenophora teres. Nature of the test: Pyrenophora teres / barley / leaf disc preventative (net blotch). Type of test: in vivo. To be noted: foliar, barley leaf segments cv. Hasso, inoculated 2 days after application, assessed 5-7 days after application, compared to untreated control. A digest of the protocol:
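Leaf segments of barley cv. Hasso on agar sprayed with water-diluted formulated compound, then inoculated with spores 2 days later. Incubation at 20 °C, 65% RH, 12 h light/12 h dark.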

Another test relates to Alternaria solani. In words: Alternaria solani / tomato / leaf disc (early blight). To be noted: foliar, tomato leaf disks cv. Baby, inoculated 2 days after application, assessed 5-7 days after application, compared to untreated control. The format is in vivo. On the procedure: Example B1: Alternaria solani/Tomato/Leaf Disc (Early Blight) Tomato leaf disks cv. Baby are placed on agar in multiwell plates (24-well format) and sprayed with the formulated test compound diluted in water. The leaf disks are inoculated with a spore suspension of the fungus 2 days after application. The inoculated leaf disks are incubated at 23° C./21° C.

In test [7] the test system is Phaeosphaeria nodorum (Septoria nodorum). In words: Phaeosphaeria nodorum (Septoria nodorum) / wheat / leaf disc preventative (glume blotch). The format is in vivo. The following applies: Parastagonospora nodorum, foliar, wheat leaf segments cv. Kanzler, inoculated 2 days after application, assessed 5-7 days after application, compared to untreated control. The essentials:
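Wheat leaf segments (cv. Kanzler) on agar were sprayed with diluted formulated compound and inoculated with fungal spores 2 days later. Incubation was at 20 °C, 75% relative humidity and 12 h light/dark. Percent disease control versus untreated leaf disks was scored 5-7 days after application.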

Test [8] deals with Glomerella lagenarium (Colletotrichum lagenarium). Nature of the test: Glomerella lagenarium (Colletotrichum lagenarium) / liquid culture (anthracnose). Type of test: cell-based. To be noted: Colletotrichum orbiculare, liquid culture (potato dextrose broth), growth inhibition photometrically 3-4 days after application, compared to untreated control. A digest of the protocol:
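Cryostored conidia in potato dextrose broth were added to wells holding compound in DMSO and incubated at 24° C. Growth inhibition read photometrically 3-4 days after application.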

Regarding `C[C@@H]1c2ccsc2[C@@](C)(c2cnn(C)c2)CN1C(=O)c1nnc(-c2ccc(F)cc2F)s1` (racemic) [Compound P-9, [5-(2,4-difluorophenyl)-1,3,4-thiadiazol-2-yl]-[rac-(4S,7R)-4,7-dimethyl-7-(1-methylpyrazol-4-yl)-4,6-dihydrothieno[3,2-c]pyridin-5-yl]methanone], the inhibition of growth at 20 ppm in [1], in test [2] and in test [3] was not below 80% in each case. Also, the “control of Thanatephorus cucumeris” value in test [4] is “at least 80%”.
As to `C[C@H]1c2sccc2[C@@H](c2cnn(C)c2)CN1C(=O)c1nnc(-c2ccc(F)cc2F)s1` [Compound P-2, [5-(2,4-difluorophenyl)-1,3,4-thiadiazol-2-yl]-[(4R,7S)-7-methyl-4-(1-methylpyrazol-4-yl)-5,7-dihydro-4H-thieno[2,3-c]pyridin-6-yl]methanone], the inhibition of growth at 20 ppm (in the test with Fusarium culmorum; in the test with Sclerotinia sclerotiorum; in test [1]; in test [6]; in [2]; in test [3]) was not below 80% throughout. For the same molecule, the inhibition of growth at 20 ppm in [8] is not below 80%. In addition, the pest or weed control at 200 ppm (in test [5]; in the test with Pyrenophora teres; with Alternaria solani; in [7]) was not below 80% in each case.
With `C[C@H]1c2sccc2[C@@](C)(c2cnn(C)c2)CN1C(=O)c1nnc(-c2ccc(F)cc2F)s1` [Compound P-6, [5-(2,4-difluorophenyl)-1,3,4-thiadiazol-2-yl]-[(4R,7S)-4,7-dimethyl-4-(1-methylpyrazol-4-yl)-5,7-dihydrothieno[2,3-c]pyridin-6-yl]methanone], the inhibition of growth at 20 ppm (in the test on Fusarium culmorum; with Sclerotinia sclerotiorum; in [1]; in test [6]; in [2]; in test [3]) was not below 80% in each case. Also, the inhibition of growth at 20 ppm in test [8] is not below 80%. The pest or weed control at 200 ppm (in test [5]; with Pyrenophora teres; with Alternaria solani; in test [7]) was not below 80% in each case.
On to `Cn1cc(C2(C)CN(C(=O)c3nnc(-c4ccc(F)cc4F)s3)Cc3sccc32)cn1` (stereo not shown) [Compound P-18, methylpyrazol-4-yl)-5,7-[5-(2,4-difluorophenyl)-1,3,4-thiadiazol-2-yl]-[4-methyl-4-(1-dihydrothieno[2,3-c]pyridin-6-yl]methanone], for which the inhibition of growth at 20 ppm (in the test on Fusarium culmorum; in the test with Sclerotinia sclerotiorum; in [6]; in [2]; in test [3]; in [8]) was not below 80% each time. Also, the pest or weed control at 200 ppm (in test [5]; in the test on Pyrenophora teres; in the test on Alternaria solani; in test [7]) was not below 80% each time.
On to `Cc1c(C2CN(C(=O)c3cc(-c4ccc(F)cc4F)on3)Cc3sccc32)cnn1C` (stereo not shown) [Compound P-32, [5-(2,4-difluorophenyl)isoxazol-3-yl]-[4-(1,5-dimethylpyrazol-4-yl)-5,7-dihydro-4H-thieno[2,3-c]pyridin-6-yl]methanone], for which the inhibition of growth at 20 ppm (in the test on Fusarium culmorum; in the test with Sclerotinia sclerotiorum; in [1]; in test [6]; in test [2]; in test [3]) was not below 80% throughout. In [8], this molecule showed an inhibition of growth at 20 ppm not below 80%. The pest or weed control at 200 ppm (in test [5]; in the test with Pyrenophora teres; with Alternaria solani; in test [7]) was not below 80% each time.
Consider `Cc1c(C2CN(C(=O)c3cc(-c4ccc(F)cc4F)on3)Cc3ccsc32)cnn1C` (stereo not shown) [Compound P-33, [5-(2,4-difluorophenyl)isoxazol-3-yl]-[7-(1,5-dimethylpyrazol-4-yl)-6,7-dihydro-4H-thieno[3,2-c]pyridin-5-yl]methanone], for which the inhibition of growth at 20 ppm (in the test with Fusarium culmorum; with Sclerotinia sclerotiorum; in test [1]; in [6]; in [2]; in test [3]) was not below 80% throughout. The molecule further showed an inhibition of growth at 20 ppm in test [8] not below 80%. The pest or weed control at 200 ppm (in test [5]; in the test with Pyrenophora teres; with Alternaria solani; in test [7]) was not below 80% each time.

Broadly, the pest or weed control is the degree to which the test organism was suppressed or injured, in per cent. Lower therefore signals a weak effect.
